Tests used:
[1] = test system: U-87 MG cells; test: Cell proliferation assay (CCK-8, day 10); format: cell-based; conditions: Homo sapiens, 240 h, U-87 MG cell line, read-out: Prolif. IC50
Procedure: One day before experiment, Granta-519 cells were passaged to a density of 0.5×10^6 cells/ml. U-87 MG cells were trypsinized and 2,000 cells were seeded into 96-well plates and allowed to grow overnight. On the day of experiment (day 0), Granta-519 Cells were spun down at 1,500 rpm for 4 min, resuspended in fresh medium to 0.5×10^6 cells/ml and 190 μL of cells were added to 96 well plates. For U-87 MG cells, old medium was removed and replaced with 190 uL fresh medium. Compound working stocks were first diluted at 1:50 with fresh medium in 96 well plate and 10 μL of diluted drugs were added to 96 well plates containing cells and incubated for 3 days. DMSO was used a vehicle control.
One day 3, 50 μL of Granta-519 cells were transferred to a new 96-well plate and 140 uL fresh medium was added. […]
On day 10, 100 μL Granta-519 cells were transferred to a new 96 well plate and 10 μL of Cell Counting Kit-8 (CCK-8, Jojindo, CK04-13) solution was added. […] Plates were incubated in CO2 incubator for 2 hours (Granta-519 cells) or 30 min (U-87 MG cells) and OD450 values were measured with a microplate reader (iMark microplate reader, Bio-Rad). Percentage of viable cells, relative to DMSO vehicle control, were calculated and plotted in Graphpad Prism ([Inhibitor] vs. normalized response−Variable slope) to determine proliferation IC50 values on day 10. […]

[2] = Solubility of HCl salt in solvents, saturated solution analyzed by HPLC; format: physicochemical; conditions: thermodynamic from solid; for solubility: 21 °C, 21 ± 1° C.; for solubility at 24 hr: 50 °C, 50 ± 1° C.
Procedure: (§1) 3 mL of the tested solvent was added to a 4 mL of vial. Formula IA was added until a cloudy solution was obtained at 21±1° C. About 30 mg additional Formula IA was added to the cloudy solution. The mixture was agitated at 21±1° C. for a weekend, during which the temperature was controlled by IKA® ETS-D5 temperature controller and IKA® RCT basic safety control. The mixture was filtered using a syringe filter (PTFE, […], 13 mm, Agela Technologies Inc.). The satuatred solution was transferred into an HPLC vial, diluted with methanol, and analyzed by HPLC.
as §1, with “2 mL” for “3 mL”, “at 50±1°” for “at 21±1°”, “for 24 hr,” for “for a weekend,”, “The saturated” for “The satuatred”

[3] = organic solvent or mixture, EtOAc
[4] = organic solvent or mixture, EtOH
[5] = organic solvent or mixture, IPA
[6] = organic solvent or mixture, IPAc
[7] = organic solvent or mixture, MeCN
[8] = organic solvent or mixture, Methanol

Row | IC50 [1] [nM] | solubility [2, 3] [µg/mL] | solubility [2, 4] [µg/mL] | solubility [2, 5] [µg/mL] | solubility [2, 6] [µg/mL] | solubility [2, 7] [µg/mL] | solubility [2, 8] [µg/mL] | solubility ([2]; Water) [µg/mL] | solubility at 24 hr [2, 3] [µg/mL] | solubility at 24 hr [2, 4] [µg/mL] | solubility at 24 hr [2, 5] [µg/mL] | solubility at 24 hr [2, 6] [µg/mL] | solubility at 24 hr [2, 7] [µg/mL] | solubility at 24 hr [2, 8] [µg/mL] | solubility at 24 hr ([2]; Water) [µg/mL] | SMILES
1 | 54 | – | – | – | – | – | – | – | – | – | – | – | – | – | – | Cc1ncnc2c1ccn2[C@@H]1O[C@H]([C@@H]2OCCc3cc(Cl)ccc32)[C@@H](O)[C@H]1O [Formula I, (2S,3S,4R,5R)-2-((R)-6-chloroisochroman-1-yl)-5-(4-methyl-7H-pyrrolo[2,3-d]pyrimidin-7-yl)tetrahydrofuran-3,4-diol]
2 | – | 120 | 7640 | 960 | 160 | 690 | > 50000 | 14700 | 160 | 10800 | 1990 | 240 | 1050 | > 50000 | 43800 | Cc1ncnc2c1ccn2[C@@H]1O[C@H]([C@@H]2OCCc3cc(Cl)ccc32)[C@@H](O)[C@H]1O [Formula IA, (2S,3S,4R,5R)-2-((R)-6-chloroisochroman-1-yl)-5-(4-methyl-7H-pyrrolo[2,3-d]pyrimidin-7-yl)tetrahydrofuran-3,4-diol]

From patent US12414953B2, “Selective inhibitors of protein arginine methyltransferase 5 (PRMT5)” (Prelude Therapeutics, Incorporated, priority 2019, dated 2025)
